Assay results reported in ChEMBL document CHEMBL1124496, “Darmstoff analogues. 3. Actions of choline esters of acetal phosphatidic acids on visceral smooth muscle” (1989).

Organism: Cavia porcellus
Test: Effective dose for relaxation of guinea pig taenia coli strips
Type: functional

Row | Structure (SMILES) | ED60 [µM]
1 | CCCCC/C=C/C/C=C/CCCCCCCC1OCC(COP(=O)([O-])OCC[N+](C)(C)C)O1 (stereo not drawn) | 50
2 | CCCCCCCCCCCCCCCC1OCC(COP(=O)([O-])OCC[N+](C)(C)C)O1 (stereo not drawn) | 57
3 | CCCCCCCC/C=C/CCCCCCCC1OCC(COP(=O)([O-])OCC[N+](C)(C)C)O1 (cis isomer) | 200
